Laboratory results published in US10220096B2, “Injectable and stable hydrogels with dynamic properties modulated by biocompatible catalysts” (The Board of Trustees of the Leland Stanford Junior …, priority 2016, dated 2019).

Columns and labels:
[1] = Rheological tests of HA-hydrazone hydrogels (time sweep, frequency sweep, stress relaxation); type: physicochemical; details: for τ1/2, time for stress to relax to half of its original value: about 10% strain
Procedure: HA-hydrazine and HA-aldehyde were first solubilized in PBS (1×, pH of about 7.4) at 5 wt. % respectively. Catalyst 1 and 2 were dissolved in PBS (1×, pH of about 7.4) and adjusted pH to about 7.4 at a stock concentration of about 250 mM. HA hydrogels were prepared by mixing HA-hydrazine, catalyst, and HA-aldehyde stock solutions successively at hydrazine to aldehyde (molar) ratio of about 1:1. The volumes of stock solutions were adjusted to make gels with different formulations.
Rheological characterization was performed on a stress-controlled rheometer (AR-G2, TA instrument) using a 20 mm cone plate. About 45 μL of a sample was loaded immediately onto the rheometer after mixing to gel in situ on the rheometer and a humidity chamber was secured in place to prevent dehydration. All the tests were performed at about 37° C. Time sweeps were performed at about 1 Hz at about 1% constant strain. Frequency sweeps were performed from about 0.1 to about 10 Hz at about 1% constant strain. Stress relaxation experiments were performed at about 10% strain.

[2] = Compression test, remoldability of hydrogels; type: physicochemical; details: hydrogel containing about 100 mM of 1
Excerpt: FIG. 9. Compression test showing remoldability of HA-hydrazone hydrogels was improved with the addition of a catalyst.

[3] = Kinetic measurements on hydrazone exchange (model reaction, HPLC); details: for k1, rate of hydrazone formation / k−1, rate of hydrazone cleavage: PBS pH about 7.4, about 37° C.
Procedure: 2-(aminomethyl)benzimidazole (1 in FIG. 2) is an efficient catalyst to accelerate hydrazone formation owing to facilitated intramolecular proton transfer in the transition state. The rates for hydrazone formation (k1) and cleavage (k−1) in the presence of 1 were measured using model reactions between hydrazine and aldehyde and modeled for a reversible second-order reaction (FIG. 8), and the equilibrium constant (Keq) was calculated from these rate constants. […] The gelation time of the HA-hydrazone hydrogels was dramatically shortened in the presence of 1. […] In the presence of about 25 mM of 1, gelation occurred in less than about 60 s and reached a final plateau shear modulus of about 800 Pa in about 5 min (FIG. 3b). Increasing the catalyst loading to about 100 mM further shortened the time to reach equilibrium to about 3 min (FIG. 3b). As shown in the frequency sweep experiment (FIG. 3c), stable gels were formed with a plateau storage modulus (G′) of about 1 kPa, which is more than an order of magnitude higher than the loss modulus (G″). […] In contrast, altering the HA polymer composition from about 1 to about 4 wt. % increased the plateau modulus (FIG. 3c). […] The rate of stress relaxation under constant strain was quantified by the time for the initially measured stress to relax to half of its original value, τ1/2. […] Accelerated hydrazone exchange by an incorporated catalyst also allowed these hydrogels to be readily remolded macroscopically (FIG. 9), facilitating their injection and re-processing. […] Therefore, the design provides a strategy to tune the modulus and rate of stress relaxation, two important mechanical properties for dynamic hydrogel materials, independently and continuously by polymer concentration and catalyst concentration, respectively.
The equilibrium constant (Keq) and rate constants for hydrazone formation (k1) and cleavage (k−1) between aldehyde S1 and hydrazine S3 as model compounds with different concentrations of catalyst 1 were measured by HPLC. S3 was synthesized by coupling N-(2-aminoethyl)-4-amino-1,8-naphthalimide with hydrazine using carbodiimide chemistry. About 2 mM stock solutions of hydrazine and aldehyde were prepared in a PBS buffer (1×, pH of about 7.4). An about 250 mM stock solution of catalyst 1 was prepared in PBS as described in the previous sections.
For the reactions performed in the absence of catalyst, about 10 μL of hydrazine and about 10 μL of aldehyde stock solutions were added to about 980 μL PBS buffer (1×, pH of about 7.4). For the reactions performed in the presence of catalyst 1, the appropriate amount of catalyst 1, hydrazine, and aldehyde were sequentially added to PBS buffer (1×, pH of about 7.4) from their stock solutions, maintaining the same concentrations for hydrazine and aldehyde as those without a catalyst. The reactions were performed at about 37° C. in a water bath and followed using HPLC with detection at about 420 nm absorption (HPLC conditions: XBridge 10 μm C18 column; about 40% acetonitrile in PBS buffer (pH of about 7) isocratic elution in about 7 min at a flow rate of about 0.34 mL/min. The concentrations and conversions were calculated from the integrals of the HPLC signals. The kinetic data of hydrazone formation were fitted to a kinetic model for 2nd order reactions using Matlab (FIG. 8).
Conditions: about 137 mM NaCl, about 2.7 mM KCl, about 12 mM phosphate, pH of about 7.4 buffer, about 37° C.

[4] = system: Human Umbilical Vein Endothelial Cells (HUVECs); assay: Catalyst toxicity, MTT cell viability assay; type: cell-based; details: 2D culture
Procedure: Human Umbilical Vein Endothelial Cells (HUVECs) were obtained from Lonza. HUVECs were expanded in growth medium composed of about 10% fetal bovine serum, about 1% penicillin/streptomycin in EBM-2. The medium was changed every about 3 d and the cells were passaged at about 70% confluency. Cells were used at passage 5 or lower for all experiments.
HUVECs pre-seeded in 96-well plates at about 10^4 cells/well were incubated with catalysts 1 and 2 for about 1 h, about 4 h, about 24 h and about 72 h. Afterwards, the cells were washed with PBS, the cell viability MTT assay was carried out to determine the cell viabilities relative to the control cells incubated with the same volume of PBS.

[5] = Hydrogel erosion study (uronic acid assay); type: physicochemical
Procedure: Long-term stability of hydrogel scaffolds is often desired to provide support for cell adhesion and growth after cell injection. Rapid hydrogel erosion is a challenge for many dynamic and injectable hydrogels. It is proposed that rapid passive diffusion of the dissolved small molecule catalyst away from the hydrogel post-injection would slow down the dynamic exchange of hydrazone crosslinks and thus enhance the hydrogel stability. Therefore evaluation was performed to monitor the diffusion of 2, which was incorporated in the hydrogel at either about 25 mM or about 50 mM initial concentration, into the buffer solution after injection by monitoring its absorption at about 281 nm. After about 50 μL hydrogel was injected and immersed in about 1 mL PBS, about 60% of 2 diffused out of the hydrogel within about 1 h, and less than about 1% remained inside the gel after about 8 h (FIG. 5a). To examine whether the rapid diffusion and thus removal of catalyst can increase the long-term stability of the hydrogels, comparison is performed of the erosion rate of hydrogels with different initial concentrations of incorporated catalyst. […] Hydrogels initially containing about 25 mM or about 50 mM of catalyst 2 had erosion rates of about 3.8 and about 4.1% per day respectively, similar to those without a catalyst (FIG. 5b), presumably due to rapid diffusion of 2 out of the hydrogels. In contrast, when diffusion of 2 away from the hydrogel was prevented by immersing the hydrogel into a buffer solution containing about 25 mM of 2, the hydrogel was completely dissolved within about 12 h (FIG. 12). […]
(§1) HA hydrogels containing 0, about 25, and about 50 mM of catalyst 2 were prepared as described in the previous section. […] Catalyst diffusion was quantified using UV measurement by monitoring absorption at about 281 nm. HA erosion was quantified by uronic acid assay according to reported procedures.

[6] = system: HUVECs encapsulated in hydrogel; assay: In vitro cell injection and quantification of viability (LIVE/DEAD); type: cell-based, Human; details: about 2 wt. % hydrogel with about 25 mM of 2, 28-gauge needle, about 20 min post-injection
Procedure: (§2) Evaluation was performed on the effect of catalyst 2 incorporated in HA-hydrazone hydrogels on the protection of encapsulated cells during injection. HUVECs were homogeneously encapsulated in about 2 wt. % hydrogels containing about 25 mM of 2 by rapidly mixing the cells suspended in HA solutions with catalyst and transferring to a syringe. Hydrogel was rapidly formed in the syringe and ejected through a 28-gauge syringe needle. A syringe pump was used for all cell injection experiments to ensure consistent flow rate for accurate comparison between all samples.
After injection, cells encapsulated in the hydrogels were incubated for about 20 min, and cell viability was then analyzed using a LIVE/DEAD staining assay.
Cell suspension was first mixed with HA-hydrazine stock solutions before further mixing with catalyst and HA-aldehyde stock solutions. All in vitro injection experiments were performed with about 30 μL gel volume containing about 3×10^4 cells. For cell injection, the final mixing stage was performed in the barrel of an about 1 mL insulin syringe fitted with a 28 gauge needle. […] Cell viability was determined using LIVE/DEAD viability/cytotoxicity kit (Invitrogen) at about 20 min post-injection and about 3 d post-injection (n=5). […] Cell numbers were quantified using ImageJ at each time point.

[7] = Ejection of hydrogel through 28-gauge syringe needle (injectability); type: physicochemical; details: about 2 wt. % hydrogel with about 25 mM of 2
Procedure: as §2

[8] = Catalyst diffusion out of hydrogel (UV absorption at about 281 nm); type: physicochemical; details: about 50 μL hydrogel in about 1 mL PBS
Procedure: Long-term stability of hydrogel scaffolds is often desired to provide support for cell adhesion and growth after cell injection. Rapid hydrogel erosion is a challenge for many dynamic and injectable hydrogels. It is proposed that rapid passive diffusion of the dissolved small molecule catalyst away from the hydrogel post-injection would slow down the dynamic exchange of hydrazone crosslinks and thus enhance the hydrogel stability. Therefore evaluation was performed to monitor the diffusion of 2, which was incorporated in the hydrogel at either about 25 mM or about 50 mM initial concentration, into the buffer solution after injection by monitoring its absorption at about 281 nm. After about 50 μL hydrogel was injected and immersed in about 1 mL PBS, about 60% of 2 diffused out of the hydrogel within about 1 h, and less than about 1% remained inside the gel after about 8 h (FIG. 5a). […]
as §1

[9] = about 2 wt. % HA hydrogel, about 25 mM of 1

For `NCc1nc2ccccc2[nH]1` [catalyst 1, 2-(aminomethyl)benzimidazole], the “τ1/2, time for stress to relax to half of its original value” ([1]; about 25 mM of 1) was “about 10 min”, the “τ1/2, time for stress to relax to half of its original value” ([1]; about 100 mM of 1) was “about 3 min” and the “final plateau shear modulus” value [1, 9] was “about 800 Pa”. The “time to reach final plateau shear modulus” value [1, 9] was “about 5 min”, the gelation time ([1]; about 2 wt. % HA hydrogel, about 25 mM of 1, about 37° C.) was “less than 60 s” and the “time to reach equilibrium (gelation)” value ([1]; about 2 wt. % HA hydrogel, about 100 mM of 1) was “about 3 min”. The “remoldability after pressing from about 2.4 mm to about 0.6 mm for about 5 min” value [2] was “adopted the height of the mold”, the “k1, rate of hydrazone formation” value ([3]; 25 mM of 1) was 127 M⁻¹ s⁻¹ and the “k−1, rate of hydrazone cleavage” value ([3]; 25 mM of 1) was 0.00103 s⁻¹. For the same compound, the “k1, rate of hydrazone formation” value ([3]; 50 mM of 1) was 250 M⁻¹ s⁻¹, the “k−1, rate of hydrazone cleavage” value ([3]; 50 mM of 1) was 0.00203 s⁻¹ and the “k1, rate of hydrazone formation” value ([3]; 100 mM of 1) was 495 M⁻¹ s⁻¹. For the same compound, the “k−1, rate of hydrazone cleavage” value ([3]; 100 mM of 1) was 0.00401 s⁻¹, the “enhancement of k1” value ([3]; about 25 mM of 1) was “about 24 fold” and the “enhancement of k−1” value ([3]; about 25 mM of 1) was “about 24 fold”. For the same compound, the “enhancement of k1” value ([3]; about 50 mM of 1) was “about 47 fold”, the “enhancement of k−1” value ([3]; about 50 mM of 1) was “about 47 fold” and the “enhancement of k1” value ([3]; about 100 mM of 1) was “about 94 fold”. The “enhancement of k−1” value ([3]; about 100 mM of 1) was “about 94 fold” and the HUVEC cell death ([4]; about 25 mM, within several hours) was “Significant cell death”.

With `NCc1nc2ccccc2n1CCCS(=O)(=O)O` [catalyst 2] the “time to complete dissolution of hydrogel” value ([5]; hydrogel immersed in buffer containing about 25 mM of 2 (diffusion prevented)) was at most 12 h, the erosion rate ([5]; hydrogel initially containing about 25 mM of catalyst 2) was “about 3.8 % per day” and the erosion rate ([5]; hydrogel initially containing about 50 mM of catalyst 2) was “about 4.1 % per day”. The “cell viability after injection” value [6] was “about 87%”, the “injectability through 28-gauge needle” value [7] was “readily ejected through the thin needle without clogging” and the “fraction of catalyst remaining inside the gel” value ([8]; after about 8 h) was “less than 1%”. The “fraction of catalyst diffused out of the hydrogel” value ([8]; within about 1 h, about 25 or 50 mM initial) was “about 60%”, the HUVEC cell death ([4]; about 5 mM, after about 3 days) was “negligible cell death” and the cells remaining viable ([4]; about 25 mM, about 24 h exposure) was “about 85%”.
